Measurements from patent US9353116B2, “Methods and compositions for kinase inhibition” (THE REGENTS OF THE UNIVERSITY OF CALIFORNIA, priority 2010, dated 2016).
pIC50: −log10 of the molar value. Read-outs that look alike come from different tables or passages of the source.

Assays:
Assay type in all cases: biochemical
T338C c-Src [1] = target: T1, T338C c-Src (Gallus gallus (Chicken), UniProt P00523, T338C); experiment: In vitro kinase assay, T338C c-Src (c-Src-ES1); settings: for fold drop in potency against T338C c-Src relative to compound 9: relative to isopropyl vinylsulfonamide 9; for fold increase in inhibition of T338C relative to WT c-Src: T338C vs WT c-Src
Method: In vitro kinase assays for c-Src variants were performed in 50 mM Tris (pH 8.0), 10 mM MgCl2 and 1 mg/mL BSA. When obtaining kinetic parameters (kcat, Km) kinase and peptide substrate (IYGEFKKK) (SEQ ID NO:51) concentrations were 2 nM and 500 μM, respectively, while ATP concentrations ranged from 2000-0.655 μM. Addition of nonradioactive ATP supplemented with ^32P ATP (3,000 Ci/mmol, NEN) was used to initiate kinase reactions. Time points were selected such that product formation never exceeded 10%. Reactions were quenched by spotting 3 μL quantities onto phosphocellulose sheets (P81, Whatman). Afterwards, the sheets were washed 3×5 minutes in 0.5% phosphoric acid and dried. Radioactivity was measured by phosphorimaging and recorded on a Typhoon fluorescence imager (Molecular Dynamics). Data were plotted as rate (min^−1) versus ATP concentration and fitted to the Michaelis-Menten equation, v=[(kcat)[S]]/(Km+[S]), using Kaleidagraph software (Synergy) to extract kinetic parameters. When obtaining IC50 values for the inhibitors, 2% (v/v) DMSO was included in kinase reactions. In these cases ATP, peptide, and enzyme concentrations were 15 nM, 100 μM and 5 nM, respectively, while inhibitor concentrations ranged from 10,000-0.610 nM. […] The data was fitted to a sigmoidal dose-response curve using Prism 4.0c (GraphPad Software) to obtain IC50 values.

WT c-Src [2] = target: T2, WT c-Src (Gallus gallus (Chicken), UniProt P00523); experiment: In vitro kinase assay, WT c-Src
Method: (§1) In vitro kinase assays for c-Src variants were performed in 50 mM Tris (pH 8.0), 10 mM MgCl2 and 1 mg/mL BSA. When obtaining kinetic parameters (kcat, Km) kinase and peptide substrate (IYGEFKKK) (SEQ ID NO:51) concentrations were 2 nM and 500 μM, respectively, while ATP concentrations ranged from 2000-0.655 μM. Addition of nonradioactive ATP supplemented with ^32P ATP (3,000 Ci/mmol, NEN) was used to initiate kinase reactions. Time points were selected such that product formation never exceeded 10%. Reactions were quenched by spotting 3 μL quantities onto phosphocellulose sheets (P81, Whatman). Afterwards, the sheets were washed 3×5 minutes in 0.5% phosphoric acid and dried. Radioactivity was measured by phosphorimaging and recorded on a Typhoon fluorescence imager (Molecular Dynamics). Data were plotted as rate (min^−1) versus ATP concentration and fitted to the Michaelis-Menten equation, v=[(kcat)[S]]/(Km+[S]), using Kaleidagraph software (Synergy) to extract kinetic parameters. When obtaining IC50 values for the inhibitors, 2% (v/v) DMSO was included in kinase reactions. In these cases ATP, peptide, and enzyme concentrations were 15 nM, 100 μM and 5 nM, respectively, while inhibitor concentrations ranged from 10,000-0.610 nM. In all cases, a ten-minute preincubation step between the kinase and the inhibitor preceded addition of ATP and a fifteen-minute reaction. The data was fitted to a sigmoidal dose-response curve using Prism 4.0c (GraphPad Software) to obtain IC50 values.

c-Src-ES3 (T338C/V323S) = c-Src-ES3 (T338C/V323S) (Gallus gallus (Chicken), UniProt P00523, T338C/V323S); experiment: In vitro kinase assay, c-Src-ES3; settings: ES3 = T338C/V323S; read-out: c-Src variant IC50 (nM) ES3
Method: as §1

c-Src-ES2 (T338C/V323A) = c-Src-ES2 (T338C/V323A) (Gallus gallus (Chicken), UniProt P00523, T338C/V323A); experiment: In vitro kinase assay, c-Src-ES2
Method: as §1

WT c-Src [3] = target: T2, WT c-Src; experiment: Gel filtration and kinetic assay, WT c-Src; settings: 23 μM inhibitor, 25 minutes, then PD10 desalting
Method: (§2) Inhibitors (final concentration 23 μM) were incubated with c-Src variants (final concentration 11.5 μM) in kinase reaction buffer (50 mM Tris pH 8, 100 mM NaCl, 1 mM DTT, 5% glycerol, 5% DMSO) for 25 minutes at room temperature. The solutions (2.6 mL total) were then passed over PD10 desalting columns (GE Healthcare) using the kinase reaction buffer for elution. Src concentrations were calculated using the extinction coefficient for c-Src (51.140 mM^−1cm^−1) {Seeliger, 2005 #100}. Kinase assays were performed as described in the experimental section at a final enzyme concentration of 10 nM.

T338C c-Src [4] = target: T1, T338C c-Src; experiment: Gel filtration and kinetic assay, T338C c-Src; settings: 23 μM inhibitor, 25 minutes, then PD10 desalting
Method: as §2

307 kinases = experiment: Kinome-wide profiling (SelectScreen Kinase Profiling Service); settings: compounds at 1 μM, ATP at Km,app
Method: The percent inhibition results in FIG. were generated with biochemical enzymatic kinase assays using the SelectScreen® Kinase Profiling Service (Life Technologies Corporation, Madison, Wis.). Compounds were assayed at 1 μM at an ATP concentration equal to the ATP Km,app for the assay following the detailed procedures described in the SelectScreen® Customer Protocol and Assay Conditions documents located at www.invitrogen.com/kinaseprofiling.
Compounds that were profiled include, but are not limited to, 3, 4, 9, 13, and 20. […] The exocyclic amine mimics N6 of ATP and plays an important role in a hydrogen bonding interaction with the hinge region of kinases.

[5] = inhibitor preincubated with Src ten minutes prior to addition of ATP, read-out: T338C c-Src IC50
[6] = inhibitor preincubated with Src ten minutes prior to addition of ATP, read-out: WT c-Src IC50
[7] = 10 min preincubation with inhibitor prior to addition of ATP, read-out: IC50 against T338C c-Src
[8] = 10 min preincubation with inhibitor prior to addition of ATP, read-out: IC50 against WT c-Src

## CCS(=O)(=O)Nc1cccc(Cc2nn(C(C)C)c3ncnc(N)c23)c1 [Compound 11, N-(3-((4-amino-1-isopropyl-1H-pyrazolo[3,4-d]pyrimidin-3-yl)methyl)phenyl)ethanesulfonamide]
T338C c-Src [1]; [5]
  pIC50: 5.46
T338C c-Src [1]
  fold drop in potency against T338C c-Src relative to compound 9: 23 fold
WT c-Src [2]; [6]
  pIC50: < 5.30

## C=CS(=O)(=O)Nc1cccc(Cc2nn(C3CCCC3)c3ncnc(N)c23)c1 [Compound 17, N-(3-((4-amino-1-cyclopentyl-1H-pyrazolo[3,4-d]pyrimidin-3-yl)methyl)phenyl)ethenesulfonamide]
T338C c-Src [1]; [5]
  pIC50: 6.71
WT c-Src [2]; [6]
  pIC50: < 5.30

## C=CC(=O)Nc1cccc(-c2nn(C(C)C)c3ncncc23)c1 [Compound 2, N-(3-(1-isopropyl-1H-pyrazolo[3,4-d]pyrimidin-3-yl)phenyl)acrylamide]
T338C c-Src [1]; [7]
  pIC50: ≤ 5.30
T338C c-Src [1]; [5]
  pIC50: < 5.30
WT c-Src [2]; [8]
  pIC50: ≤ 5.30
WT c-Src [2]; [6]
  pIC50: < 5.30

## C=CS(=O)(=O)Nc1cccc(-c2nn(C(C)C)c3ncnc(N)c23)c1 [Compound 3, N-(3-(4-amino-1-isopropyl-1H-pyrazolo[3,4-d]pyrimidin-3-yl)phenyl)ethenesulfonamide]
c-Src-ES3 (T338C/V323S)
  IC50: 131 nM
T338C c-Src [1]; ES1 = T338C, read-out: c-Src variant IC50 (nM) ES1
  IC50: 111 nM
T338C c-Src [1]
  fold increase in inhibition of T338C relative to WT c-Src: > 9 fold
T338C c-Src [1]; [5]
  pIC50: 6.95
WT c-Src [2]; [6]
  pIC50: 6.00
c-Src-ES2 (T338C/V323A); ES2 = T338C/V323A, read-out: c-Src variant IC50 (nM) ES2
  IC50: 63 nM
c-Src-ES2 (T338C/V323A); c-Src-ES2 and c-Src-ES3 relative to c-Src-ES1
  change of inhibitor potency upon second-site Val323 mutations: not modulated appreciably

## C=CS(=O)(=O)Nc1cccc(Cc2nn(C(C)(C)C)c3ncnc(N)c23)c1 [Compound 16, N-(3-((4-amino-1-tert-butyl-1H-pyrazolo[3,4-d]pyrimidin-3-yl)methyl)phenyl)ethenesulfonamide]
T338C c-Src [1]; [5]
  pIC50: 6.21
T338C c-Src [1]
  fold drop in potency against T338C c-Src relative to compound 9: 4 fold
WT c-Src [2]; [6]
  pIC50: < 5.30

## C=CC(=O)Nc1cccc(Cc2nn(C(C)C)c3ncnc(N)c23)c1 [Compound 7, N-(3-((4-amino-1-isopropyl-1H-pyrazolo[3,4-d]pyrimidin-3-yl)methyl)phenyl)acrylamide]
T338C c-Src [1]; [5]
  pIC50: 5.56
WT c-Src [2]; [6]
  pIC50: < 5.30

## Cc1ccc(-c2nn(C(C)(C)C)c3ncnc(N)c23)cc1 [PP1, reference compound]
WT c-Src [3]
  inhibitory activity after gel filtration, WT c-Src: abrogated
T338C c-Src [4]
  inhibitory activity after gel filtration, T338C c-Src: abrogated

## C=CS(=O)(=O)Nc1cccc(-c2nn(C(C)C)c3ncncc23)c1 [Compound 4, N-(3-(1-isopropyl-1H-pyrazolo[3,4-d]pyrimidin-3-yl)phenyl)ethenesulfonamide]
307 kinases
  off-target profile in kinome-wide screen: relatively few off-target effects
T338C c-Src [1]; [7]
  pIC50: ≤ 5.30
T338C c-Src [1]; [5]
  pIC50: < 5.30
WT c-Src [2]; [8]
  pIC50: ≤ 5.30
WT c-Src [2]; [6]
  pIC50: < 5.30

## C=CC(=O)Nc1cccc(-c2nn(C(C)C)c3ncnc(N)c23)c1 [Compound 1, N-(3-(4-amino-1-isopropyl-1H-pyrazolo[3,4-d]pyrimidin-3-yl)phenyl)acrylamide]
T338C c-Src [1]; [5]
  pIC50: 6.38
WT c-Src [2]; [6]
  pIC50: 5.63

## CC(C)n1nc(-c2cccc(NC(=O)CCl)c2)c2c(N)ncnc21 [Compound 6, N-(3-(4-amino-1-isopropyl-1H-pyrazolo[3,4-d]pyrimidin-3-yl)phenyl)-2-chloroacetamide]
T338C c-Src [1]; [5]
  pIC50: 6.09
WT c-Src [2]; [6]
  pIC50: < 5.30

## C=CS(=O)(=O)Nc1ccc(Cc2nn(C(C)C)c3ncnc(N)c23)cc1 [Compound 10, N-(4-((4-amino-1-isopropyl-1H-pyrazolo[3,4-d]pyrimidin-3-yl)methyl)phenyl)ethenesulfonamide]
T338C c-Src [1]; [5]
  pIC50: 5.75
WT c-Src [2]; [6]
  pIC50: 5.51

## CC(C)n1nc(Cc2cccc(NC(=O)CCl)c2)c2c(N)ncnc21 [Compound 12, N-(3-((4-amino-1-isopropyl-1H-pyrazolo[3,4-d]pyrimidin-3-yl)methyl)phenyl)-2-chloroacetamide]
T338C c-Src [1]; [5]
  pIC50: < 5.30
WT c-Src [2]; [6]
  pIC50: < 5.30

## C=CC(=O)Nc1ccc(Cc2nn(C(C)C)c3ncnc(N)c23)cc1 [Compound 8, N-(4-((4-amino-1-isopropyl-1H-pyrazolo[3,4-d]pyrimidin-3-yl)methyl)phenyl)acrylamide]
T338C c-Src [1]; [5]
  pIC50: < 5.30
WT c-Src [2]; [6]
  pIC50: < 5.30

## C=CS(=O)(=O)Nc1cccc(Cc2nn(C)c3ncnc(N)c23)c1 [Compound 15, N-(3-((4-amino-1-methyl-1H-pyrazolo[3,4-d]pyrimidin-3-yl)methyl)phenyl)ethenesulfonamide]
T338C c-Src [1]; [5]
  pIC50: 5.50
T338C c-Src [1]
  fold drop in potency against T338C c-Src relative to compound 9: 21 fold
WT c-Src [2]; [6]
  pIC50: < 5.30

## C=CS(=O)(=O)Nc1ccc(-c2nn(C(C)C)c3ncnc(N)c23)cc1 [Compound 5, N-(4-(4-amino-1-isopropyl-1H-pyrazolo[3,4-d]pyrimidin-3-yl)phenyl)ethenesulfonamide]
T338C c-Src [1]
  fold increase in inhibition of T338C relative to WT c-Src: ~6 fold
T338C c-Src [1]; [5]
  pIC50: 6.84
WT c-Src [2]; [6]
  pIC50: 6.05

## C=CC(=O)Nc1cccc(Nc2ncnc3cc(OC)c(OC)cc23)c1 [Compound 18, N-(3-(6,7-dimethoxyquinazolin-4-ylamino)phenyl)acrylamide]
T338C c-Src [1]; [5]
  pIC50: 5.78
WT c-Src [2]; [6]
  pIC50: < 5.30
